The test system of test [1] is N. gonorrhoeae WHO G. The test is described as follows: Liquid broth MIC in Fastidious broth. To be noted: Neisseria gonorrhoeae, read-out: Minimum Inhibitory Concentration (MIC), N. gonorrhoeae WHO G.
Test [2] has as its system N. gonorrhoeae MS11. The test is described as follows: Liquid broth MIC in Fastidious broth. Conditions: Neisseria gonorrhoeae, MS11, read-out: Minimum Inhibitory Concentration (MIC), N. gonorrhoeae MS11.
Test [3] has as its system N. gonorrhoeae WHO M. The test is described as follows: Liquid broth MIC in Fastidious broth. To be noted: Neisseria gonorrhoeae, read-out: Minimum Inhibitory Concentration (MIC), N. gonorrhoeae WHO M.
Test [4] relates to P. aeruginosa (ΔmexAB-oprM). Kind of test: Broth microdilution MIC in CAMHB. The class given is cell-based. Conditions: Pseudomonas aeruginosa; read-out: MIC P. aeruginosa ΔmexAB-oprM.
Test [5] deals with E. coli D22. The test is described as follows: microbe, parasite or virus in culture. To be noted: Escherichia coli, D22, read-out: MIC E. coli D22. It counts as cell-based.
Test [6] addresses T1, PBP2 from Neisseria gonorrhoeae (FA19) (Neisseria gonorrhoeae, UniProt P08149).
T1 construct: made in house
Kind of test: Bocillin-FL fluorescence polarization competition binding, N. gonorrhoeae PBP2. Conditions: fluorescence polarization competition binding assay using Bocillin-FL, read-out: N. gonorrhoeae PBP2 Potency. An excerpt: To determine the ability of boronic acid-based test PBP inhibitors to bind Penicillin Binding Proteins (PBPs), Bocillin-FL (fluorescently-labeled penicillin V; ThermoFisher Scientific) was used in a fluorescence polarization (FP) competition binding assay to assess inhibitor binding to PBP3 from Escherichia coli (K-12), PBP3 from Pseudomonas aeruginosa (PAO1), PBP1a and PBP3 from Acinetobacter baumannii (ATCC 19606), and PBP2 from Neisseria gonorrhoeae (FA19). PBPs were cloned and purified as described previously (E. coli PBP3, King, D. T, et al., ACS Infectious Diseases 2015, 1, 175-184; P. aeruginosa PBP3, Han et. al., PNAS 2010, 107 (51), 22002-22007; A. baumannii PBPs, Penwell et. al., Antimicrob. Agents Chemother. 2015, 59 (3), 1680-1689; N. gonorrhoeae PBP2, Singh et. al., J. Biol. Chem. 2019, 294 (38), 14020-14032). To establish assay conditions for competition binding, enzyme titration/saturation binding experiments were initially performed. Bocillin-FL was prepared at 0.2 μM in a buffer comprised of 50 mM Hepes (pH 8.0), 300 mM NaCl and 10% (v/v) glycerol for reactions with E. coli, P. aeruginosa and N. gonorrhoeae PBPs, and 25 mM Tris (pH 8.0), 200 mM NaCl, 10% (v/v) glycerol and 0.005% (v/v) Tween 20 for reactions with A. baumannii PBPs. Saturation binding was performed by mixing 40 μl of PBP solutions ranging in concentrations from 0-24 μM with 40 μl of the 0.2 μM Bocillin-FL solution, in individual wells of a black 384-well microplate. FP was measured immediately upon mixing (Excitation, 490 nm; Emission, 520 nm; g-factor, 0.96), using a Cytation3 (BioTek) microplate reader and measured continuously for up to 120 minutes. […] The competition binding assay (80 μl final volume) was validated using beta-lactams and PBPs at final concentrations of: 1.5 μM for E. coli PBP3; 0.75 μM for P. aeruginosa PBP3; 1 μM for A. baumannii PBP1a; 0.2 μM for A. baumannii PBP3; and 0.25 μM for N. gonorrhoeae PBP2. Bocillin-FL was at 0.1 μM (0.05 μM with A. baumannii PBP1a) and beta-lactam concentrations ranged from 0-1,000 μM. E. coli PBP3 was incubated with increasing concentrations of ampicillin in a black 384-well microplate (Corning) for 30 minutes. P. aeruginosa PBP3 was incubated for 15 minutes with aztreonam, whereas A. baumannii PBP1a and PBP3 were incubated for 15 minutes with meropenem, and then Bocillin-FL was added followed immediately by the FP measurement for up to 60 minutes. […] The beta-lactam potency was reported as the concentration of beta-lactam required to reduce the amount of PBP bound-Bocillin-FL by 50% (EC50). […] Binding assays for boronic acid PBP inhibitors were performed in an identical fashion for the respective PBPs.

Structures are written as SMILES. Converted amounts (≈) assume the structure as drawn.

Our source for the MIC and EC50 values is patent US20240270762A1, “PENICILLIN-BINDING PROTEIN INHIBITORS” (priority 2021, published 2024).

T1 sequence (P08149 whole entry): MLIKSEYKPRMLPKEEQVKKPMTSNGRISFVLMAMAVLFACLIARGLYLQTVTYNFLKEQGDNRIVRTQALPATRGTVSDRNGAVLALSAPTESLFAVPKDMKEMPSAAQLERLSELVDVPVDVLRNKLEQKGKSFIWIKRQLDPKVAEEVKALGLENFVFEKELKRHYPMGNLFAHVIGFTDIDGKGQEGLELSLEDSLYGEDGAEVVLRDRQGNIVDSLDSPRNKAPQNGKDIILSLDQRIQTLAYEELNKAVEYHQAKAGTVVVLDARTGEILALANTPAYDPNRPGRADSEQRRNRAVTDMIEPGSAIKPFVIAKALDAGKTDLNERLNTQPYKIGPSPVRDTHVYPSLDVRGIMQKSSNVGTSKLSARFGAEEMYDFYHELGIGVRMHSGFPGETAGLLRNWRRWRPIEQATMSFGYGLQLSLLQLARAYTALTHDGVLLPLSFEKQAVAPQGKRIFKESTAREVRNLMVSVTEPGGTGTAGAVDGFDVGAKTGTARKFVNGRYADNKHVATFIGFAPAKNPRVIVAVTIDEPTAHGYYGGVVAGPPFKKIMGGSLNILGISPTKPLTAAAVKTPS

With `O=C(N[C@@H](C(=O)N[C@H]1Cc2cccc(C(=O)O)c2OB1O)c1ccc(P(=O)(O)O)cc1)c1ccc(C(F)(F)F)cn1` (single isomer, unassigned) [Example 193], the MIC in test [1] was less than 1 µg/mL; in test [2], less than 1 µg/mL; in test [3], less than 1 µg/mL; in test [4] it was 32 to 64 µg/mL (≈ 53.9 to 108 µM); in test [5], 2 to 4 µg/mL (≈ 3.37 to 6.74 µM). Also, the EC50 in test [6] is less than 10 µM.

Regarding `O=C(O)c1c(F)ccc2c1OB(O)[C@@H](NC(=O)C(NC(=O)N1CCN(Cc3ccc(O)c(O)c3Cl)C(=O)C1=O)c1ccc(P(=O)(O)O)cc1)C2` (stereo partly drawn) [Example 8, (3R)-3-(2-(4-(2-chloro-3,4-dihydroxybenzyl)-2,3-dioxopiperazine-1-carboxamido)-2-(4-phosphonophenyl)acetamido)-7-fluoro-2-hydroxy-3,4-dihydro-2H-benzo[e][1,2]oxaborinine-8-carboxylic acid], the MIC in test [1], in test [2], in test [3], in test [4] and in test [5] was less than 1 µg/mL in each case. Further, the EC50 in test [6] was less than 10 µM.

With `CS(=O)(=O)N1CCN(C(=O)NC(C(=O)N[C@H]2Cc3cccc(C(=O)O)c3OB2O)c2ccc(P(=O)(O)O)c(Cl)c2)C1=O` (stereo partly drawn) [Example 11, (3R)-3-(2-(3-chloro-4-phosphonophenyl)-2-(3-(methylsulfonyl)-2-oxoimidazolidine-1-carboxamido)acetamido)-2-hydroxy-3,4-dihydro-2H-benzo[e][1,2]oxaborinine-8-carboxylic acid], the MIC in test [1] was less than 1 µg/mL; in test [2], less than 1 µg/mL; in test [3], less than 1 µg/mL; in test [4], 32 to 64 µg/mL (≈ 49.6 to 99.3 µM); in test [5], 8 to 16 µg/mL (≈ 12.4 to 24.8 µM). Further, the EC50 in test [6] is less than 10 µM.

Consider `CS(=O)(=O)N1CCN(C(=O)NC(C(=O)N[C@H]2Cc3cccc(C(=O)O)c3OB2O)c2ccc(P(=O)(O)O)c(F)c2)C1=O` (stereo partly drawn) [Example 12, (3R)-3-(2-(3-fluoro-4-phosphonophenyl)-2-(3-(methylsulfonyl)-2-oxoimidazolidine-1-carboxamido)acetamido)-2-hydroxy-3,4-dihydro-2H-benzo[e][1,2]oxaborinine-8-carboxylic acid], for which the MIC in test [1] is less than 1 µg/mL; in test [2], less than 1 µg/mL; in test [3] it was less than 1 µg/mL; in test [4] it was 32 to 64 µg/mL (≈ 50.9 to 102 µM); in test [5] it was 2 to 4 µg/mL (≈ 3.18 to 6.37 µM). Also, in test [6], the EC50 was less than 10 µM.

On to `NC(C(=O)N[C@H]1Cc2ccc(F)c(C(=O)O)c2OB1O)c1ccc(P(=O)(O)O)cc1` (stereo partly drawn) [Example 14, (3R)-3-(2-amino-2-(4-phosphonophenyl)acetamido)-7-fluoro-2-hydroxy-3,4-dihydro-2H-benzo[e][1,2]oxaborinine-8-carboxylic acid], for which the MIC in test [1] is greater than 64 µg/mL; in test [2] it was greater than 64 µg/mL; in test [3], greater than 64 µg/mL; in test [4], greater than 128 µg/mL; in test [5], greater than 128 µg/mL. For the same compound, the EC50 in test [6] was in the range of 50 to 250 µM.

As for `CS(=O)(=O)N1CCN(C(=O)N[C@@H](C(=O)N[C@H]2Cc3ccc(F)c(C(=O)O)c3OB2O)c2ccc(P(=O)(O)O)c(F)c2F)C1=O` [Example 16, (R)-3-((R)-2-(2,3-difluoro-4-phosphonophenyl)-2-(3-(methylsulfonyl)-2-oxoimidazolidine-1-carboxamido)acetamido)-7-fluoro-2-hydroxy-3,4-dihydro-2H-benzo[e][1,2]oxaborinine-8-carboxylic acid], the MIC in test [1] is less than 1 µg/mL; in test [2], less than 1 µg/mL; in test [3], less than 1 µg/mL; in test [4] it was greater than 128 µg/mL; in test [5], 8 to 16 µg/mL (≈ 12 to 24.1 µM). Besides, in test [6], the EC50 was less than 10 µM.

For `CS(=O)(=O)N1CCN(C(=O)NC(C(=O)N[C@H]2Cc3cccc(C(=O)O)c3OB2O)c2ccc(P(=O)(O)O)c(O)c2)C1=O` (stereo partly drawn) [Example 17, (3R)-2-hydroxy-3-(2-(3-hydroxy-4-phosphonophenyl)-2-(3-(methylsulfonyl)-2-oxoimidazolidine-1-carboxamido)acetamido)-3,4-dihydro-2H-benzo[e][1,2]oxaborinine-8-carboxylic acid], the MIC in test [1] is less than 1 µg/mL; in test [2], less than 1 µg/mL; in test [3], less than 1 µg/mL; in test [4], 8 to 16 µg/mL (≈ 12.8 to 25.5 µM); in test [5], 2 to 4 µg/mL (≈ 3.19 to 6.39 µM). For the same compound, in test [6], the EC50 is less than 10 µM.

On to `CCN1CCN(C(=O)NC(C(=O)N[C@H]2Cc3cccc(C(=O)O)c3OB2O)c2ccc(CP(=O)(O)O)cc2)C(=O)C1=O` (stereo partly drawn) [Example 20, (3R)-3-(2-(4-ethyl-2,3-dioxopiperazine-1-carboxamido)-2-(4-(phosphonomethyl)phenyl)acetamido)-2-hydroxy-3,4-dihydro-2H-benzo[e][1,2]oxaborinine-8-carboxylic acid], for which the MIC is less than 1 µg/mL in test [1]; less than 1 µg/mL in test [2]; less than 1 µg/mL in test [3]; 8 to 16 µg/mL (≈ 13.3 to 26.6 µM) in test [4]; 2 to 4 µg/mL (≈ 3.32 to 6.64 µM) in test [5]. For the same compound, the EC50 in test [6] was less than 10 µM.

For the compound `CCN1CCN(C(=O)NC(C(=O)N[C@H]2Cc3cccc(C(=O)O)c3OB2O)c2ccc(P(=O)(O)O)c(O)c2)C(=O)C1=O` (stereo partly drawn) [Example 21, (3R)-3-(2-(4-ethyl-2,3-dioxopiperazine-1-carboxamido)-2-(3-hydroxy-4-phosphonophenyl)acetamido)-2-hydroxy-3,4-dihydro-2H-benzo[e][1,2]oxaborinine-8-carboxylic acid], the MIC in test [1] was less than 1 µg/mL; in test [2] it was less than 1 µg/mL; in test [3], less than 1 µg/mL; in test [4] it was 32 to 64 µg/mL (≈ 53 to 106 µM); in test [5], 2 to 4 µg/mL (≈ 3.31 to 6.62 µM). Further, the EC50 in test [6] is less than 10 µM.

For the compound `CCN1CCN(C(=O)NC(C(=O)N[C@H]2Cc3cccc(C(=O)O)c3OB2O)c2cccc(CP(=O)(O)O)c2)C(=O)C1=O` (stereo partly drawn) [Example 22, (3R)-3-(2-(4-ethyl-2,3-dioxopiperazine-1-carboxamido)-2-(3-(phosphonomethyl)phenyl)acetamido)-2-hydroxy-3,4-dihydro-2H-benzo[e][1,2]oxaborinine-8-carboxylic acid], the MIC in test [1] was less than 1 µg/mL; in test [2] it was 1 to 2 µg/mL (≈ 1.66 to 3.32 µM); in test [3], less than 1 µg/mL; in test [4], 8 to 16 µg/mL (≈ 13.3 to 26.6 µM); in test [5] it was 2 to 4 µg/mL (≈ 3.32 to 6.64 µM). Further, the EC50 in test [6] is less than 10 µM.

`CCN1CCN(C(=O)NC(C(=O)N[C@H]2Cc3cccc(C(=O)O)c3OB2O)c2c(F)cc(P(=O)(O)O)cc2F)C(=O)C1=O` (stereo partly drawn) [Example 25, (3R)-3-(2-(2,6-difluoro-4-phosphonophenyl)-2-(4-ethyl-2,3-dioxopiperazine-1-carboxamido)acetamido)-2-hydroxy-3,4-dihydro-2H-benzo[e][1,2]oxaborinine-8-carboxylic acid]: the MIC in test [1] was less than 1 µg/mL; in test [2], less than 1 µg/mL; in test [3] it was less than 1 µg/mL; in test [4], 32 to 64 µg/mL (≈ 51.3 to 103 µM); in test [5], 2 to 4 µg/mL (≈ 3.2 to 6.41 µM). Also, in test [6], the EC50 is less than 10 µM.

As to `CC(=O)NC(C(=O)N[C@H]1Cc2cccc(C(=O)O)c2OB1O)c1ccc(P(=O)(O)O)cc1` (stereo partly drawn) [Example 26, (3R)-3-(2-acetamido-2-(4-phosphonophenyl)acetamido)-2-hydroxy-3,4-dihydro-2H-benzo[e][1,2]oxaborinine-8-carboxylic acid], the MIC in test [1] was 16 to 32 µg/mL (≈ 34.6 to 69.2 µM); in test [2] it was 16 to 32 µg/mL (≈ 34.6 to 69.2 µM); in test [3], 4 to 8 µg/mL (≈ 8.66 to 17.3 µM); in test [4], greater than 128 µg/mL; in test [5], 32 to 64 µg/mL (≈ 69.2 to 138 µM). The EC50 in test [6] fell in the range of 10 to 50 µM.
